Columns and labels:
Assay type in all cases: in vivo
[1] = tested on: directly sowed Oryza sativa; assay: Test Example 3: effect on crop by application to foliage (Wagner pot, water depth 0.1-0.5 cm); details: Nineteenth Table; application to foliage; application herbicide amount 320 g/ha
Method in brief: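 Grading uses six bands of herbicidal ratio, from 0 (≤5%, almost no effect) to 5 (≥90%, almost completely withered). Treatment was a stem-and-leaf spray of diluted emulsion at a fixed g/ha on 14-day-old plants; evaluation after three weeks.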

[2] = tested on: Apera spica-venti.; assay: Test Example 4: herbicidal effect by application to foliage (diluvial soil, plastic box); details: Application herbicide amount 320 g/ha
Method in brief: (§1)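 Greenhouse plants (25° C. to 30° C., 14 d, diluvial soil) receive a foliar spray of water-diluted emulsifiable formulation at defined g/ha. Grading after 3 weeks uses a six-step herbicidal-ratio scale, with 4 covering 70% to <90% and 1 covering 5% to <20%.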

[3] = tested on: Abutilon theophrasti; assay: as above; details: Application herbicide amount 320 g/ha
Method in brief: as §1

[4] = tested on: Digitaria ciliaris; assay: as above; details: Application herbicide amount 320 g/ha
Method in brief: as §1

[5] = tested on: Lolium multiflorum Lam.; assay: as above; details: Application herbicide amount 320 g/ha
Method in brief: as §1

[6] = tested on: Galium spurium; assay: as above; details: Application herbicide amount 320 g/ha
Method in brief: as §1

[7] = tested on: Setaria viridis; assay: as above; details: Application herbicide amount 320 g/ha
Method in brief: as §1

[8] = tested on: Veronica persica; assay: as above; details: Application herbicide amount 320 g/ha
Method in brief: as §1

[9] = tested on: Avena fatua; assay: as above; details: Application herbicide amount 320 g/ha
Method in brief: as §1

[10] = tested on: Alopecurus myosuroides; assay: as above; details: Application herbicide amount 320 g/ha
Method in brief: as §1

SMILES | b (effect on crop grade) [1] | L [2] | M [3] | F [4] | K [5] | Q [6] | G [7] | R [8] | I [9] | J [10]
Cc1nnc(NC(=O)c2ccc(C(F)(F)F)n3c(CC[S+](C)[O-])nnc23)o1 (centres unmarked) [1-084] | 2 (Herbicidal ratio of 20% or more and less than 40%) | 0 (Herbicidal ratio of 5% or less (almost no effect)) | 5 (Herbicidal ratio of 90% or more (almost completely withered)) | 5 (Herbicidal ratio of 90% or more (almost completely withered)) | 0 (Herbicidal ratio of 5% or less (almost no effect)) | 4 (Herbicidal ratio of 70% or more and less than 90%) | 5 (Herbicidal ratio of 90% or more (almost completely withered)) | 5 (Herbicidal ratio of 90% or more (almost completely withered)) | 3 (Herbicidal ratio of 40% or more and less than 70%) | 0 (Herbicidal ratio of 5% or less (almost no effect))
Cc1nnc(NC(=O)c2ccc(C(F)(F)F)n3c(N(C)c4ccccc4)nnc23)o1 [1-086] | 0 (Herbicidal ratio of 5% or less (almost no effect)) | 0 (Herbicidal ratio of 5% or less (almost no effect)) | 5 (Herbicidal ratio of 90% or more (almost completely withered)) | 5 (Herbicidal ratio of 90% or more (almost completely withered)) | 0 (Herbicidal ratio of 5% or less (almost no effect)) | 1 (Herbicidal ratio of 5% or more and less than 20%) | 4 (Herbicidal ratio of 70% or more and less than 90%) | 4 (Herbicidal ratio of 70% or more and less than 90%) | 0 (Herbicidal ratio of 5% or less (almost no effect)) | 0 (Herbicidal ratio of 5% or less (almost no effect))
CCCSc1nnc2c(C(=O)Nc3nnc(C)o3)ccc(C(F)(F)F)n12 [1-087] | 1 (Herbicidal ratio of 5% or more and less than 20%) | 2 (Herbicidal ratio of 20% or more and less than 40%) | 5 (Herbicidal ratio of 90% or more (almost completely withered)) | 5 (Herbicidal ratio of 90% or more (almost completely withered)) | 1 (Herbicidal ratio of 5% or more and less than 20%) | 1 (Herbicidal ratio of 5% or more and less than 20%) | 5 (Herbicidal ratio of 90% or more (almost completely withered)) | 4 (Herbicidal ratio of 70% or more and less than 90%) | 3 (Herbicidal ratio of 40% or more and less than 70%) | 3 (Herbicidal ratio of 40% or more and less than 70%)
Cc1nnc(NC(=O)c2ccc(C(F)(F)F)n3c(NC(C)C)nnc23)o1 [1-090] | 0 (Herbicidal ratio of 5% or less (almost no effect)) | 1 (Herbicidal ratio of 5% or more and less than 20%) | 3 (Herbicidal ratio of 40% or more and less than 70%) | 5 (Herbicidal ratio of 90% or more (almost completely withered)) | 1 (Herbicidal ratio of 5% or more and less than 20%) | 1 (Herbicidal ratio of 5% or more and less than 20%) | 3 (Herbicidal ratio of 40% or more and less than 70%) | 5 (Herbicidal ratio of 90% or more (almost completely withered)) | 3 (Herbicidal ratio of 40% or more and less than 70%) | 1 (Herbicidal ratio of 5% or more and less than 20%)
CC(C)Sc1nnc2c(C(=O)Nc3nnco3)ccc(C(F)(F)F)n12 [1-091] | 0 (Herbicidal ratio of 5% or less (almost no effect)) | 3 (Herbicidal ratio of 40% or more and less than 70%) | 5 (Herbicidal ratio of 90% or more (almost completely withered)) | 5 (Herbicidal ratio of 90% or more (almost completely withered)) | 3 (Herbicidal ratio of 40% or more and less than 70%) | 4 (Herbicidal ratio of 70% or more and less than 90%) | 5 (Herbicidal ratio of 90% or more (almost completely withered)) | 5 (Herbicidal ratio of 90% or more (almost completely withered)) | 4 (Herbicidal ratio of 70% or more and less than 90%) | 2 (Herbicidal ratio of 20% or more and less than 40%)

From patent US9708314B2, “Heterocyclic amide compound” (NISSAN CHEMICAL INDUSTRIES, LTD., priority 2013, dated 2017)
